Values quoted from earlier work in paper PMC5523132 (ACS chemical biology, 2016).

Settings: cited from earlier work

Compound	half-life (adult rats)	clearance half-life (in the rat)
O=C([O-])CN1CCN(CC(=O)[O-])CCN(CC(=O)[O-])CCN(CC(=O)[O-])CC1.[Gd+3] [[Gd•DOTA], reference compound]	roughly 19 minutes	
RSA: rat serum albumin		approx. 48 hours
